Entries after “also recorded” stand apart in the source; their conditions may differ.
Experiments:
db/db mice [1] = experiment: Antidiabetic effects in db/db mice, daily oral dosing for 4 weeks; type: in vivo; details: for effect on blood glucose (in words) / effect on free fatty acids (in words) / effect on serum triglycerides (in words): 4 weeks of daily oral dosing; for effect on blood glucose (in words): versus vehicle; for effect on free fatty acids (in words) / effect on serum triglycerides (in words): versus vehicle-treated db/db mice; for Glucose ± SEM: serum glucose; for Glucose ± SEM / Free Fatty Acids ± SEM / Triglycerides ± SEM: 100 mg/kg daily oral, 4 weeks; for Free Fatty Acids ± SEM / Triglycerides ± SEM: serum
Description: (§1) Db/db mice have a defect in leptin signaling, leading to hyperphagia, obesity and diabetes. Moreover, unlike ob/ob mice on a C57BL/6J background, db/db mice on a C57BLKS background undergo failure of their insulin-producing pancreatic islet cells, resulting in progression from hyperinsulinemia (associated with peripheral insulin resistance) to hypoinsulinemic diabetes.
(§2) Male obese (db/db homozygote) C57BL/Ksola mice approximately 8 weeks of age, were obtained from Jackson Labs (Bar Harbor, Me.) and randomly assigned into groups of 5-7 animals such that the body weights (40-45 g) and serum glucose levels (≧300 mg/dl in fed state) were similar between groups; male lean (db/+heterozygote) mice served as cohort controls. A minimum of 7 days was allowed for adaptation after arrival. All animals were maintained under controlled temperature (23° C.), relative humidity (50±5%) and light (7:00-19:00), and allowed free access to standard chow (Formulab Diet 5008, Quality Lab Products, Elkridge, Md.) and water.
Treatment cohorts were given daily oral doses of vehicle, Compound BI (100 mg/kg), or Compound CR (100 mg/kg) for 4 weeks. At the end of the treatment period 100 μl of venous blood was withdrawn in a heparinized capillary tube from the retro-orbital sinus for serum chemistry analysis.

db/db mice [2] = experiment: Antidiabetic effects in db/db mice, daily oral dosing for 2 weeks; type: in vivo; details: for Glucose / Glucose (% of Control) / Free Fatty Acids ± SEM / Glucose ± SEM / Triglycerides ± SEM: 100 mg/kg daily oral; for Glucose / Glucose (% of Control): 2 weeks; for Glucose (% of Control): relative to vehicle control; for effect on blood glucose (in words) / effect on free fatty acids (in words) / effect on triglycerides (in words): 2 weeks of daily oral dosing; for Free Fatty Acids ± SEM / Glucose ± SEM / Triglycerides ± SEM: plasma serum, 2 weeks (Table IV)
Description: as §1, §2
[…] At the end of the treatment period 100 μl of venous blood was withdrawn in a heparinized capillary tube from the retro-orbital sinus for serum chemistry analysis.
The same procedure as Example 2 was followed.

| Compound | effect on blood glucose (in words) (db/db mice [1]) | effect on free fatty acids (in words) (db/db mice [1]) | effect on serum triglycerides (in words) (db/db mice [1]) | Glucose ± SEM (db/db mice [1]) | Free Fatty Acids ± SEM (db/db mice [1]) | Triglycerides ± SEM (db/db mice [1]) | Glucose (db/db mice [2]) | Glucose (% of Control) (db/db mice [2]) | effect on blood glucose (in words) (db/db mice [2]) | effect on free fatty acids (in words) (db/db mice [2]) | effect on triglycerides (in words) (db/db mice [2]) | Free Fatty Acids ± SEM (db/db mice [2]) | Glucose ± SEM (db/db mice [2]) | Triglycerides ± SEM (db/db mice [2]) |
| --- | --- | --- | --- | --- | --- | --- | --- | --- | --- | --- | --- | --- | --- | --- |
| Cc1cccc(C)c1COc1cccc(C(=O)CCC(=O)O)c1 [Compound BI, 4-(3-(2,6-Dimethylbenzyloxy)-phenyl)-4-oxobutanoic acid, reference compound] | significant reduction | reduced | reduced | 189 ± 25 mg/dL | 1387 ± 101 µM | 125 ± 11 mg/dL | 317.4 ± 48.0 mg/dL | 42 ± 6 % of Control | significant reduction | caused a decrease | markedly reduce | 1070.3 ± 96.4 | 317.4 ± 48.0 | 136.3 ± 18.1 |
| Cc1cccc(C)c1COc1cccc([C@H](O)CCC(=O)O)c1 [Compound CR, 4-(3-(2,6-Dimethylbenzyloxy)-phenyl)-4(R)-hydroxybutanoic acid] | significant reduction | reduced; also recorded: did result in a decrease | reduced | 235 ± 49 mg/dL | 1634 ± 78 µM | 182 ± 29 mg/dL | 263.2 ± 59.0 mg/dL | 35 ± 8 % of Control | significant reduction | not CR caused a decrease | markedly reduce | 1326.3 ± 124.2 | 263.2 ± 59.0 | 86.3 ± 9.4 |

Reference: patent publication US7514555B2, “Compounds for the treatment of metabolic disorders” (Wellstat Therapeutics Corporation, priority 2003, dated 2009)
